# Results: US7268162B2, “Aloe-emodin derivatives and their use in the treatment of neoplasias” (Universita' Degli Studi di Padova, priority 2001, dated 2007)
# Where a name gives a salt, the structure may show the parent alone.
# Experiments:
# SJ-N-KP [1] = assay: In vitro cytotoxicity assay (MTT), neuroblastoma SJ-N-KP; format: cell-based, human; conditions: 72 hrs exposure, medium with 10% inactivated FBS
# Method: (§1) In vitro cytotoxicity assays were conducted on different tumour cell lines, also of neuroectodermal origin. Purpose of said assays was also to check the compounds cytotoxic action and specificity. […] The aforesaid cells were assayed with the following compounds: • AM: ester of maleic acid (ex. 1) dissolved in DMSO • AS: ester of succinic acid (ex. 2) dissolved in DMSO • ADG: ester of diglycolic acid (ex. 3) dissolved in DMSO • AF: ester of phthalic acid (ex. 4) dissolved in DMSO • ABT: […] AE phosphoric ester (ex.12) dissolved in HEPES • AED: AE acetal with daunosamine (ex.13) dissolved in HEPES The cells, cultured according to known methods, were seeded 24 hrs prior to treatment with the various derivatives at a concentration of 1000 cells/100 μl. For molecules dissolved in dimethylsulphoxide, DMSO, the concentration of the initial stock was 200 mM and for molecules dissolved in a HEPES buffer and in the physiological solution was 1 mM. […] For each assay, a control was carried out with the medium alone (RPMI with 10% inactivated fetal bovine serum, FBS, and 1% penicillin/streptomycin). […] The cells viability was assessed by the MTT dye assay. […] The EC50 values (μM) referred to each compound and cell line are given.
# IMR5 [2] = assay: In vitro cytotoxicity assay (MTT), neuroblastoma IMR-5; format: cell-based, human; conditions: medium with 10% inactivated FBS
# Method: as §1
# LoVo 109 [3] = assay: In vitro cytotoxicity assay (MTT), colon adenocarcinoma LoVo 109; format: cell-based, human; conditions: 72 hrs exposure, medium with 10% inactivated FBS
# Method: as §1
# SJ-N-KP [4] = assay: In vitro cytotoxicity assay (MTT), neuroblastoma SJ-N-KP; format: cell-based, human; conditions: 72 hrs exposure, medium with non-inactivated FBS (esterase)
# IMR5 [5] = assay: In vitro cytotoxicity assay (MTT), neuroblastoma IMR-5; format: cell-based, human; conditions: 72 hrs exposure, medium with non-inactivated FBS (esterase)
# LoVo 109 [6] = assay: In vitro cytotoxicity assay (MTT), colon adenocarcinoma LoVo 109; format: cell-based, human; conditions: 72 hrs exposure, medium with non-inactivated FBS (esterase)
# [7] = water and physiological solution; cited from earlier work
# [8] = system: tumour cells of neuroectodermal origin; conditions: Italian patent application No. MI 2000A001216; cited from earlier work
Compound,EC50 (LoVo 109 [3]) [µM],EC50 (SJ-N-KP [1]) [µM],EC50 (IMR5 [2]; 72 hrs exposure) [µM],further results
"C[C@H](N)C(=O)OCc1cc(O)c2c(c1)C(=O)c1cccc(O)c1C2=O [Ex. 11: ALA, ala-aloe-emodin hydrochloride]",200,,,"EC50 (SJ-N-KP [1]; hydrochloride): 200 µM; EC50 (SJ-N-KP [1]; listed as Ex. 11: ALA-HCI, hydrochloride): 70.6 µM; EC50 (IMR5 [2]; 72 hrs exposure, hydrochloride): 200 µM; EC50 (IMR5 [2]; 72 hrs exposure, listed as Ex. 11: ALA-HCI, hydrochloride): 70.6 µM"
"O=C(O)C=CC(=O)OCc1cc(O)c2c(c1)C(=O)c1cccc(O)c1C2=O [Ex. 1: AM, mono-(4,5-dihydroxy-9,10-dioxo-9,10-dihydroanthracen-2-ylmethyl)ester but-2-endioic acid]",,270 to 280,270 to 280,
"O=C(O)CCC(=O)OCc1cc(O)c2c(c1)C(=O)c1cccc(O)c1C2=O [Ex. 2: AS, mono-(4,5-dihydroxy-9,10-dioxo-9,10-dihydroanthracen-2-ylmethyl)ester succinic acid]",43,43,40,
"N[C@@H](Cc1c[nH]c2ccccc12)C(=O)OCc1cc(O)c2c(c1)C(=O)c1cccc(O)c1C2=O [Ex. 6: TRIP, AE Ester with Tryptophan]",8 to 9,8 to 9,10,
"O=C(O)c1ccccc1C(=O)OCc1cc(O)c2c(c1)C(=O)c1cccc(O)c1C2=O [Ex. 4: AF, mono-(4,5-dihydroxy-9,10-dioxo-9,10-dihydroanthracen-2-ylmethyl)ester phthalic acid]",,300,250,EC50 (SJ-N-KP [4]): 50 µM; EC50 (IMR5 [5]): 50 µM; EC50 (LoVo 109 [6]): 50 µM
"O=C1c2cccc(O)c2C(=O)c2c(O)cc(COP(=O)(O)O)cc21 [Ex. 12: AEP, AE Ester with Phosphoric Acid]",20,12,10,
"O=C(O)COCC(=O)OCc1cc(O)c2c(c1)C(=O)c1cccc(O)c1C2=O [Ex. 3: ADG, (4,5-Dihydroxy-9,10-dioxo-9,10-dihydroanthracen-2-ylmethoxycarbonylmethoxy) acetic acid]",,,,"EC50 (SJ-N-KP [1]; Homo sapiens): 10 µM; EC50 (IMR5 [2]; Homo sapiens, IMR-5, 72 hrs exposure): 10 µM; EC50 (LoVo 109 [3]; Homo sapiens, LoVo): 20 µM"
"O=C(O)c1ccc(C(=O)OCc2cc(O)c3c(c2)C(=O)c2cccc(O)c2C3=O)c(C(=O)O)c1 [Ex. 5: ABT, 1-(4,5-dihydroxy-9,10-dioxo-9,10-dihydroanthracen-2-ylmethyl)ester 1,2,4-Benzenetricarboxylic acid]",,150,160,
"CC(N)C(=O)OCc1cc(O)c2c(c1)C(=O)c1cccc(O)c1C2=O (centres unmarked) [Ex. 7: ALA-NH2, AE Ester with Alanine]",,264,300,
AE Acetal with Daunosamine [Ex. 13: AED],10,5,5,
"C[C@H](N)C(=O)OCc1cc(O)c2c(c1)C(=O)c1cccc(O)c1C2=O [Ex. 10: EM9, ala-aloe-emodin trifluoroacetate]",5,6.7,6.7,
"CC[C@H](C)[C@H](N)C(=O)OCc1cc(O)c2c(c1)C(=O)c1cccc(O)c1C2=O [Ex. 8: PJ8, AE Ester with Isoleucine]",20,9,9,
"O=C1c2cccc(O)c2C(=O)c2c(O)cc(CO)cc21 [Aloe-emodin, aloe-emodin]",,,,solubility [7]: hardly soluble in water and in the physiological solution; cytotoxicity [8]: specific cytotoxicity to tumour cells of neuroectodermal origin
"NC(Cc1ccc(O)cc1)C(=O)OCc1cc(O)c2c(c1)C(=O)c1cccc(O)c1C2=O (centres unmarked) [Ex. 9: TIR-NH2, AE Ester with Tyrosine]",26,96.4,,
